Earlier results on one compound are cited in patent US7087219B2, “Toothpaste containing anticancer agents” (priority 2003, dated 2006).

For series [1] the following is noted: according to publications and patents (Burzynski et al. 1986).
The conditions of series [2]: general statement; marketed as a food supplement.

Regarding `O=C1CCC(NC(=O)Cc2ccccc2)C(=O)N1` (centres unmarked) [3-N-phenylacetylamino-2,6-piperidinedione], in series [1], the “efficacy in treating cancers in clinical trials” value was “effective in treating a variety of cancers in clinical trials”. Also, the toxicity result in series [2] was “completely non-toxic”.
